The subject of test [1] is T0 dgt-14 corn plants. In words: Postemergence herbicide tolerance in dgt-14 transformed T0 corn. Type of test: in vivo, Zea mays. The settings on record: Durango DMA. As for the experimental part:
T0 events are allowed to acclimate in the greenhouse and are grown until two to four new, normal looking leaves emerge from the whorl (i.e., plants that transition from tissue culture to greenhouse growing conditions). Plants are grown at 27° C. under 16 hour light:8 hour dark conditions in the greenhouse. The plants are then treated with commercial formulations of Durango DMA™ (containing the herbicide glyphosate) with the addition of 2% w/v ammonium-sulfate. Herbicide applications are made with a track sprayer at a spray volume of 187 L/ha, 50-cm spray height. T0 plants are sprayed with a range of glyphosate from 280-4480 g ae/ha glyphosate, which is capable of significant injury to untransformed corn lines. A lethal dose is defined as the rate that causes >95% injury to the B104 inbred.

Test [2] has as its target bacterial EPSP synthase DGT-29 (GENBANK YP_322772.1) variant DGT-29 v6 (G→A at residue 96), SEQ ID NO:11 (Trichormus variabilis, UniProt Q3MAV9, G96A). In words: In vitro kinetic assay (inorganic phosphate production, malachite green). The settings on record: IC50 (glyphosate), values greater than 50 are estimates. An excerpt: (§1) The novel DGT-14, DGT-12, DGT-18, DGT-29 and DGT-30 enzymes were obtained and the glycine to alanine mutation was introduced into the EPSP synthase enzymes at a location analogous to the G96A location described for the E. coli version of the EPSP synthase enzyme. The DGT-14 protein sequence was modified by introducing an alanine to replace the endogenous glycine of GENBANK ACC NO: ZP_01452683 at amino acid residue 101, thereby resulting in SEQ ID NO:1. The DGT-12 protein sequence was modified by introducing an alanine to replace the endogenous glycine of GENBANK ACC NO: ZP_01622155.1 at amino acid residue 111, thereby resulting in SEQ ID NO:7. The DGT-18 protein sequence was modified by introducing an alanine to replace the endogenous glycine of GENBANK ACC NO: NP_928909.1 at amino acid residue 96, thereby resulting in SEQ ID NO:9. The DGT-29 protein sequence was modified by introducing an alanine to replace the endogenous glycine of GENBANK ACC NO: YP_322772.1 at amino acid residue 96, thereby resulting in SEQ ID NO:11. The DGT-30 protein sequence was modified by introducing an alanine to replace the endogenous glycine of GENBANK ACC NO: ZP_02156189.1 at amino acid residue 96, thereby resulting in SEQ ID NO:13.
(§2) The synthesized genes were cloned into the pET28 expression vector.
(§3) Recombinant DGT proteins were overexpressed in Rosetta2™ (DE3) cells (Novagen, Madison, Wis.) from the constructs described above. A single colony was used to inoculate 50 mL starter cultures of LB containing chloramphenicol (25 μg/mL) and kanamycin (50 μg/mL) which were cultivated overnight at 37° C. The overnight cultures were used to inoculate 1 L of LB containing chloramphenicol (25 μg/mL) and kanamycin (50 μg/mL). The cultures were grown at 37° C. to an O.D.600=0.6 then placed in an ice water bath for 10 minutes. Expression of the target proteins was achieved by addition of IPTG to a final concentration of 500 μM. Induction was allowed to proceed overnight at 20° C. followed by harvesting via centrifugation at 8,000 rpm for 20 minutes. The cell pellets were stored at −80° C. until required for purification. All purification steps were carried out at 4° C.

The target in test [3] is bacterial EPSP synthase DGT-30 (GENBANK ZP_02156189.1) variant DGT-30 v6 (G→A at residue 96), SEQ ID NO:13 (Shewanella benthica, UniProt A9CYU9, G96A). The description is as above. The settings on record: IC50 (glyphosate).
Excerpt: as §1, §2, §3

For test [4], the target named is bacterial EPSP synthase DGT-18 (GENBANK NP_928909.1) variant DGT-18 v6 (G→A at residue 96), SEQ ID NO:9 (Photorhabdus laumondii, UniProt Q7N6D5, G96A). The description is as above. The settings on record: IC50 (glyphosate).
Excerpt: as §1, §2, §3

The values that follow come from patent US9873883B2, “Glyphosate resistant plants and associated methods” (Dow AgroSciences LLC, priority 2012, dated 2018).

Where “and” joins values, the source holds several entries; their conditions need not be identical. Equal entries are not always repeated. A value given as a limit tells only on which side of the number the result lay.

What is called IC50 is the concentration needed to halve the response being measured.

Turning to `O=C(O)CNCP(=O)(O)O` [glyphosate, N-(phosphonomethyl)glycine], the “tolerance to glyphosate achieved at rates up to” value in test [1] is “up to 4480 g ae/ha”. The IC50 in test [2] (*determined at 100 μM PEP) was over 80 mM; in test [2] (at 1 mM PEP), over 80 mM; in test [3] (at 60 μM PEP) it was 7.86 mM; in test [3] (at 1 mM PEP), 15.6 mM and 15.5 mM; in test [4] (at 60 μM PEP) it was 9.24 mM; in test [4] (at 1 mM PEP), 33.2 mM.
